Measurements from PMC10606064, “2-Aminothiazole-Flavonoid Hybrid Derivatives Binding to Tau Protein and Responsible for Antitumor Activity in Glioblastoma” (International Journal of Molecular Sciences, 2023).

What was measured:
[1] = test system: caspase 3 protein (Casp3) in U87 shCTRL and U87 shTau cells; test: Caspase 3 expression by Western blot (apoptosis); format: cell-based, human; conditions: both cell types, 48 h treatment
Protocol: Cells were lysed with freshly made RIPA buffer derivative (4.3 mL of TBS 1×, 50 µL of SDS 10%, 10 µL of EDTA 0.5 M, 500 µL of Triton 10×, and 1% inhibitors of protease and phosphatase). After 30 min of lysis at 4 °C under agitation, lysates were centrifuged at 10,000× g for 10 min at 4 °C. Equivalent amounts of proteins from the supernatant fraction were subjected to Western blot analysis. Protein samples were loaded (40 μg/lane) and separated on 10 or 12% sodium dodecyl sulfate-polyacrylamide gels. The separated proteins were transferred onto nitrocellulose blotting membrane using the Bio-Rad transfer system. Before blocking, the blots were stained with Ponceau red to visualize transfer efficiency. […] The band intensity was quantified using the ImageJ v1.50g software. […] The band intensity was quantified using the NIH ImageJ v1.50g software. […]
(§1) death. (A) The apoptotic protein casp ase 3 (Casp 3) was analy zed by western blot of U87 shCTRL and U87 shTau cells: for each s ample t he ratio between the amount of Casp3 and GAPDH was calculated as relative fold of the reference value (with or without the compound); n = 3 lysates, ns: non-si gnificant. […]
blot used for quantification. (B) The activity of necrotic LDH protein was analy zed by fluorescence emission in U87 shCTRL (upper panel) and U87 shTau (lower panel) cells. […]

[2] = target: T1, Tau protein (full-length human Tau, hTau40) (Homo sapiens, UniProt P10636); test: Tau intrinsic fluorescence quenching, modified Stern–Volmer binding parameters; conditions: 5 µM Tau, buffer B pH 6.8, mean ± SD; for Kd: read-out: Equilibrium Binding Constants to Tau, KD
T1 construct: The full-length human Tau (hTau40) was expressed in a transformed E. coli BL21 (DE3) strain; made in house; host or cells: E. coli BL21 (DE3)
Protocol: Fluorescence measurements were performed with a Horiba Jobin Yvon FluoroMax-3 spectrofluorometer. […] For experiments, the excitation wavelength was fixed at 275 nm, and the emission spectra were recorded between 280 nm and 500 nm at room temperature. The inner filter effects were corrected according to Lakowicz as follows:F = Fobs × exp{(Aem + Aex)/2}(2) where Fobs and F are the observed and corrected fluorescence values at the emission wavelength of 303 nm. Aex and Aem are the absorptions at the excitation and emission wavelengths, respectively, calculated with A = ε.l.C, in which ε is the extinction coefficient of Tau, l is the path length of cuvette, and C is Tau concentration.
The total fluorescence in the absence of quencher (F0) is given by:F0 = F0a + F0b(4) where 0 refers to the fluorescence intensity in the absence of quencher.
In the presence of quencher, we defined fa as the fraction of the initial fluorescence of Tau accessible to compounds:fa = F0a/(F0a + F0b)(5)
Therefore, the intensity of the accessible fraction (fa) is decreased according to the Stern–Volmer equation, whereas the buried fraction is not quenched, as given by:F = {F0a/(1 + K.[Q])} + F0b(6)
Then, subtraction of Equations (6) and (4) yields:ΔF = F0 − F = F0a × {K.[Q]/(1 + K.[Q])}(7)
At last, inversion of Equation (7) followed by division into Equation (4) yields:F0/ΔF = {1/(fa.K.[Q])} + 1/fa(8)
We applied this modified form of the Stern–Volmer equation to graphically determine the values of fa and K. For our experiments, we plotted F0/ΔF against 1/[Q], then we determined the fa value at the point of intersection with the y-axis, while the slope represented (faK)^−1.

mature Tau aggregates = target: T2, mature Tau aggregates (Homo sapiens, UniProt P10636); test: Dissolution of preformed (mature) Tau aggregates, ThS fluorescence; format: biochemical; conditions: 10, 30 and 100 µM added to ThS-labelled aggregates after 8 h, 37 °C
T2 construct: The full-length human Tau (hTau40) was expressed in a transformed E. coli BL21 (DE3) strain; made in house; host or cells: E. coli BL21 (DE3)
Protocol: Moreover, we performed a qualitative study of the ability of QCT and compounds 1, 5, and 9 to dissolve preformed Tau aggregates (Figure 3).
Eight-hour time courses were performed with ThS to monitor heparin-induced Tau aggregation by spectrofluorometry at 520 nm (37 °C), then 10, 30, and 100 µM of compounds (curves b–d) were added to the ThS-labelled Tau aggregates. A control was performed without compound (curve a).

[3] = test system: lactate-dehydrogenase (LDH) of U87 shCTRL and U87 shTau cells; test: LDH activity in the medium (necrosis); format: cell-based; conditions: both cell types, 24 h treatment
Protocol: as §1
blot used for quantification. (B) The activity of necrotic LDH protein was analy zed by fluorescence emission in U87 shCTRL (upper panel) and U87 shTau (lower panel) cells. For each s ample, the ratio between LDH florescence was calculated as the percentage of activity against reference value (0,1% Triton); n = 3 lysates; Significant statistical differences were calculated using a non-parametric Mann-Whitney test with **P < 0.01; n.s: non-significant.
(1 picture or pasted object on this page, not shown here)

[4] = target: T3, full-length human Tau (hTau40) (Homo sapiens, UniProt P10636); test: Tau oligomerization inhibition assay (heparin-induced, thioflavin S fluorescence); format: biochemical; conditions: 2 µM Tau, heparin-induced, ThS; buffer A pH 6.9; 25 °C per table footnote (37 °C in method); mean ± SD; read-out: Inhibition of Aggregation IC50
T3 construct: The full-length human Tau (hTau40) was expressed in a transformed E. coli BL21 (DE3) strain; made in house; host or cells: E. coli BL21 (DE3)
Protocol: Tau oligomerization inhibition assay was performed at 37 °C in 96-well plates by monitoring thioflavin-S fluorescence at 520 nm after excitation at 440 nm using a microplate reader (POLARstar Omega system, BMG Labtech, Paris, France). The Tau oligomerization process was induced by heparin. […] The plates were shaken at 200 rpm for 10 s before each measurement. The real value of fluorescence at the plateau was determined using SciDAVis v1.23 software. Data were fitted to the SciDAVis built-in ExpGrowth equation by means of nonlinear least-squares regression analysis. Y = Y0 + A × exp(x/t)(1)
The unscaled Levenberg–Marquardt algorithm was used, and initial values were given to Y0, A, and t. The final Y0 value of the model corresponds to the plateau value. The plateau values were then used to calculate the Tau oligomerization inhibition percentage. The IC50 for each compound was calculated from the scatter plot of Tau oligomerization inhibition (in percentage) as a function of log10 of compound concentration. The IC50 value (in µM) thus corresponds to ten raised to the power of […].

T1 sequence (P10636 1-441 isoform P10636-8): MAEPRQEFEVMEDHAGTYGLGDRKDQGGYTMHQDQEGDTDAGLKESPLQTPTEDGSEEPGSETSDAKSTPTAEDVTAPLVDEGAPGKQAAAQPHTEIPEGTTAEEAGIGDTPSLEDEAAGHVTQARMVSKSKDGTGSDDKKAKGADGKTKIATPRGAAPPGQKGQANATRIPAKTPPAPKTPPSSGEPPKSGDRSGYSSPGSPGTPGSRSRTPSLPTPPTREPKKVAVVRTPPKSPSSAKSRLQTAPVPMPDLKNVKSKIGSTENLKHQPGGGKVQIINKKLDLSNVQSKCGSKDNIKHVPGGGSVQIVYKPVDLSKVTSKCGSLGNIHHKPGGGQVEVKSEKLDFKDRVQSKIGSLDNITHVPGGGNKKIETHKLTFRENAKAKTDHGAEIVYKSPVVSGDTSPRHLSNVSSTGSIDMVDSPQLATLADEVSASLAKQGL
T3 sequence (P10636 1-441 isoform P10636-8): as above
T2 sequence (P10636 1-441 isoform P10636-8): as above

Row | Compound | expression of caspase 3 (Casp3) [1] | Equilibrium Binding Constants to Tau, fA (Tyr accessible fraction) [2] | Kd [2] [µM] | Ability to dissolve mature (preformed) Tau aggregates (mature Tau aggregates) | LDH activity [3] | IC50 [4] [µM]
1 | Nc1nc2ccc3oc(-c4cccc(Oc5ccccc5)c4)cc(=O)c3c2s1 [Compound 2, 2-amino-7-(3-phenoxyphenyl)-9H-chromeno [6,5-d]thiazol-9-one] | no change in the expression of Casp3 | 0.14 ± 0.10 | 4.7 ± 1.8 | able to dissolve mature Tau aggregates | remained similar to untreated cells | 31.7 ± 7.3
2 | Nc1nc2ccc3oc(C(=O)O)cc(=O)c3c2s1 [Compound 5] | no change in the expression of Casp3 | 0.38 ± 0.01 | 6.4 ± 1.5 | no significant change of ThS fluorescence intensity | remained similar to untreated cells | > 100
